# Measured values: article PMC11843613, “Further Optimization of the mGlu1 PAM VU6024578/BI02982816: Discovery and Characterization of VU6033685” (ACS Chemical Neuroscience, 2025)
# Entries after “also recorded” stand apart in the source; their conditions may differ.
# How the values were obtained:
# [1] = Predicted hepatic clearance (dog); type: in vitro ADME
# Procedure: at half log concentrations in DMSO were further diluted in assay buffer. The compounds or DMSO vehicle were added to cells and incubated for 2.5 min and an EC20 concentration of glutamate was added and incubated for 1 min. An ECmax concentration of glutamate was also added to cells that were incubated with DMSO vehicle to accurately calculate the EC20 calcium response. Data were normalized by subtracting the basal florescent peak before EC20 agonist addition from the maximal peak elicited by EC20 agonist and PAMs. Using GraphPad Prism 5.0, the concentration response curves were generated and the potencies of the mGlu1 PAMs were determined.
# Plasma protein binding: The protein binding of each compound was determined in plasma via equilibrium dialysis employing RED Plates (ThermoFisher Scientific, Rochester, NY). Plasma was added to the 96 well plate containing test compound and mixed thoroughly for a final concentration of 5 µM. […]
# Each compound was assayed in triplicate within the same 96-well plate. Fraction unbound was determined using the following equation […]
# After a 5 min preincubation, the reaction was initiated by addition of NADPH (1 mM). […] The in vitro half-life (T 1/2, min, Eq. 1), intrinsic clearance (CLint, mL/min/kg, Eq. 2) and subsequent predicted hepatic clearance (CLhep, mL/min/kg, Eq. 3) was determined […]
# [2] = Rat tolerability in NOR and PO PK studies
# [3] = Sprague-Dawley, in vivo
# [4] = tested on: MK-801 disruption of novel object recognition in rats; experiment: Rat MK-801-induced disruption of novel object recognition (NOR); type: in vivo
# Procedure: mode (5.0 kV spray voltage). The calibration curves were constructed in blank plasma. All data were analyzed using AB Sciex Analyst software v1.5.1.
# All animal study procedures were approved by the Institutional Animal Care and Use Committee and were conducted in accordance with the National Institutes of Health regulations of animal care covered in Principles of Laboratory Animal Care (National Institutes of Health). […]
# GraphPad Prism (version 4.03, GraphPad, La Jolla, CA). […]
# The animals are habituated to the novel object arenas for one day prior to testing. This is accomplished by placing the animal in the arena with no objects for 10 min and then placed back […]
# into the home cage. The arena is then cleaned with 70% ethanol in between animals. The day of the test the animals are habituated to the dosing room for 2 hours. […]
# The animals were then injected with MK-801 (0.075 mg/kg 1 ml/kg s.c.) and placed back in the homecage for 30 min. The animals are then placed into the arena with two identical familiar objects for ten minutes and then placed back into the home cage. The animals are then placed back into the arena with one of the familiar objects replaced with a novel object at 120 min after the familiar object exposure. The activity of the animals are recorded and the time spent exploring each of the objects is scored by a blinded observer. Recognition index is determined by subtracting the time spent with the […] divided by total time spent exploring. […]
# NaCl, 26 mM NaHCO3, 11mM D-glucose, 2.5 mM KCl, 2.45mM CaCl2, 1.25mM NaH2PO4 and 1.2mM MgSO4 which was supplemented with 5mM sodium ascorbate. Slices were recovered for at least 1 hour prior to recording. During recording slices were perfused with aCSF in the absence of ascorbate and presence of […] DhβE to block nAChR-mediated dopamine release. […]
# Briefly, a triangular voltage wave (-400 to +1000 mV at 300 V/sec) was applied to a fresh-cut carbon fiber electrode every 100 msec. […]
# dog mGlu1 = dog mGlu1 (Canis lupus familiaris, UniProt A0A8I3NTE8); experiment: mGlu1 PAM functional assay (dog); type: cell-based
# dog mGlu1, sequence (A0A8I3NTE8 30-1195): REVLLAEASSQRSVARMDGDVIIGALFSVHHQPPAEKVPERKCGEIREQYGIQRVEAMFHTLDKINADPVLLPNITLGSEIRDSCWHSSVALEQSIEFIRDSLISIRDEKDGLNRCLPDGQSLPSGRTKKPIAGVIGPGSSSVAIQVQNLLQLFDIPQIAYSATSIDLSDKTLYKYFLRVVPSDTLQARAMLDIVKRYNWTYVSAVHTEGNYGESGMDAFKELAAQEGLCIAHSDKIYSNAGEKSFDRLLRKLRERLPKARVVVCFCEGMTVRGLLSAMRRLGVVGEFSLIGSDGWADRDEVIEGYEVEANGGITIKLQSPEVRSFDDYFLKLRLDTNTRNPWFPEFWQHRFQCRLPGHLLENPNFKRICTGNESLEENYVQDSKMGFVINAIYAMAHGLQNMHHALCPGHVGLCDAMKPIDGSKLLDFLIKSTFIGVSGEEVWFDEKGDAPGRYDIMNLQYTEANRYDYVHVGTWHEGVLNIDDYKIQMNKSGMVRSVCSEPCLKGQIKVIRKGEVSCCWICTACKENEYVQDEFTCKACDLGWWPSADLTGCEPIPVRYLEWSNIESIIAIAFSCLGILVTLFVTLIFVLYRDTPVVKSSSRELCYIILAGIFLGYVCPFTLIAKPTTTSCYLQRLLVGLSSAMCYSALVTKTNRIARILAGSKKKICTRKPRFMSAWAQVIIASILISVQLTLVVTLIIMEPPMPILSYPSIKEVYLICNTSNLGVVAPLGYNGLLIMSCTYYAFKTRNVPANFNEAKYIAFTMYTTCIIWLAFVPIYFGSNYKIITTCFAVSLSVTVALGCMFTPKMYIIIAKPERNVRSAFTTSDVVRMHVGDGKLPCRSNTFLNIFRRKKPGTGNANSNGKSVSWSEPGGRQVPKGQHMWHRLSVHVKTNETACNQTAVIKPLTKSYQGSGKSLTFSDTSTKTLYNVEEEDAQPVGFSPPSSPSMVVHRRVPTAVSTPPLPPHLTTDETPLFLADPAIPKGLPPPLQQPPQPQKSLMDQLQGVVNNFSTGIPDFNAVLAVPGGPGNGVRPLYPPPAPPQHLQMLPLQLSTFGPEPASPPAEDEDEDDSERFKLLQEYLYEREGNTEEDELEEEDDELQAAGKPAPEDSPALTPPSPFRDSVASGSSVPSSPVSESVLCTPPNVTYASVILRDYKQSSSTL
# [5] = Dose escalation PO PK study in mice; type: in vivo, mouse
smiles,measurement,setting,value
Cc1nc(C2CC2)ccc1CNC(=O)c1cc(-n2cccn2)ccc1Cl [compound 8],Predicted CLhep (d),[1],15.1 mL/min/kg
same,adverse events at 6.2-fold rat EC50 free in brain,[2]; rat PO,"piloerection, slow movement, and reaction to stimuli"
same,duration of adverse events postdose,[2]; rat PO,~2 h
same,free brain concentration (fold rat EC50) that resulted in AEs,[2]; rat PO PK studies,6.2 fold
same,free brain concentration that resulted in AEs,[2]; rat PO PK studies,664 nM
same,free brain concentration (fold rat EC50) that was well tolerated,[3],up to 5.3 fold
same,free brain level as fold of rat in vitro EC50 at 30 mg/kg in NOR,[4]; rat PO 30 mg/kg,~5.2 fold
same,free brain level at 30 mg/kg in NOR,"[4]; rat PO 30 mg/kg, 0.5% Natrasol/0.015% Tween 80 in water",579 nM
same,reversal of MK-801 disruption of novel object recognition,"[4]; rat, PO, MK-801 0.075 mg/kg SC, one-way ANOVA p = 0.13",dose-dependently reverse the deficits induced by MK-801; also recorded: dose-dependently reversed
same,EC50,dog mGlu1,0.093 µM
same,Emax,dog mGlu1; read-out: dog mGlu1 Glu Max,79%
same,observations at >24-fold EC50 free brain,[5]; mouse PO,without any observed AEs
same,free brain concentration as fold of mouse EC50 at 500 mg/kg,[5]; mouse PO 500 mg/kg,~90 fold
same,observations at 500 mg/kg,[5]; mouse PO 500 mg/kg,all animals displayed uncoordinated movements and were cold to the touch
same,free brain concentration reached without AEs,[5]; mouse PO dose escalation,~1250 nM
same,free brain concentration as fold of mouse EC50 reached without AEs,"[5]; mouse PO dose escalation (50, 150, 500 mg/kg)",> 24 fold
